Source: publication PMC12040169 (PLOS Biology, 2025)

How the values were obtained:
[1] = test system: T1, CTL2-GFP (C. trachomatis L2/434/Bu, GFP-expressing); assay: microbe, parasite or virus in culture; set-up: Intracellular C. trachomatis growth in HeLa cells, bulk GFP fluorescence relative to DMSO; settings: Chlamydia trachomatis, HeLa, 28.5 h; bulk GFP, mean of 2; read-out: % of control remaining
T1 construct: L2/434/Bu, GFP-expressing
Procedure: MICs were calculated as described above.

in vitro [2] = assay: in vitro; set-up: Viability of infected HeLa host cells, resazurin conversion, bulk resorufin fluorescence relative to DMSO; settings: human, hela cells; bulk resorufin, mean of 2
[3] = test system: T2, C. trachomatis L2/434/Bu expressing GFP (CTL2-GFP); assay: microbe, parasite or virus in culture; set-up: C. trachomatis total inclusion area by high-content imaging, normalised to DMSO; settings: Chlamydia trachomatis, HeLa, 28.5 h; total inclusion area; read-out: % of control remaining
T2 construct: L2/434/Bu GFP intracellular growth in HeLa cells
Description: We screened a library of 36,785 small molecules displaying drug-like properties and covering a wide chemical space (Fig 1A and S2A Data). In this process, we also complemented the assay described above with an imaging-based readout (Fig 1B). After measurements of bulk GFP and resorufin fluorescence, cells were fixed, stained with the DNA dye Hoechst, and imaged at a high-content imaging platform to detect chlamydial inclusions (GFP) and host cell nuclei (Hoechst). The total area and number of inclusions in individual wells and the number of nuclei then served as additional proxies for chlamydial growth and host cell viability. […] MICs were calculated as described above.

in vitro [4] = settings: human, hela cells, % viability

CC(C)(CN)CN(Cc1ccccc1Br)C(=O)NC(c1ccccc1)c1ccccc1 [CBK002488C]
activity at 1 µM [1]: 150%
activity at 5 µM [1]: 114%
activity at 10 µM [1]: 85.7%
viability at 28.5 h, 1 µM (in vitro [2]): 92.2%
viability at 28.5 h, 5 µM (in vitro [2]): 93.1%
viability at 28.5 h, 10 µM (in vitro [2]): 90%
activity at 1 µM [3]: 112%
activity at 5 µM [3]: 116%
activity at 10 µM [3]: 38.2%

CN(C(=O)c1ccc(Cl)c(Cl)c1)[C@H]1CCC[C@H]1N1CCCC1 [CBK003411C]
activity at 1 µM [1]: 32.2%
activity at 5 µM [1]: 0.223%
activity at 10 µM [1]: 1.01%
viability at 28.5 h, 1 µM (in vitro [2]): 112%
viability at 28.5 h, 5 µM (in vitro [2]): 111%
viability at 28.5 h, 10 µM (in vitro [2]): 118%
activity at 1 µM [3]: 52.8%
activity at 5 µM [3]: 1.24%
activity at 10 µM [3]: 0.29%

FC(F)(F)c1ccc(N2CCNCC2)nc1OCc1ccc2c(c1)OCCO2 [CBK003994A]
activity at 1 µM [1]: 106%
activity at 5 µM [1]: 40.3%
activity at 10 µM [1]: 22.5%
viability at 28.5 h, 1 µM (in vitro [2]): 100%
viability at 28.5 h, 5 µM (in vitro [2]): 103%
viability at 28.5 h, 10 µM (in vitro [2]): 96.6%
activity at 1 µM [3]: 82.5%
activity at 5 µM [3]: 8.88%
activity at 10 µM [3]: 7.41%

CCOc1ccc2nc(NC(=N)N)nc(C)c2c1 [CBK010384C]
activity at 1 µM [1]: 121%
activity at 5 µM [1]: 24.6%
activity at 10 µM [1]: 4.24%
viability at 28.5 h, 1 µM (in vitro [2]): 90.4%
viability at 28.5 h, 5 µM (in vitro [2]): 102%
viability at 28.5 h, 10 µM (in vitro [2]): 94.8%
activity at 1 µM [3]: 87%
activity at 5 µM [3]: 20.7%
activity at 10 µM [3]: 1.75%

CC(=O)NC[C@H]1CN(c2ccc(C#N)c(C)c2)C(=O)O1 [CBK010393]
activity at 1 µM [1]: 120%
activity at 5 µM [1]: 98%
activity at 10 µM [1]: 55.2%
viability at 28.5 h, 1 µM (in vitro [2]): 89.7%
viability at 28.5 h, 5 µM (in vitro [2]): 90.3%
viability at 28.5 h, 10 µM (in vitro [2]): 89.8%
activity at 1 µM [3]: 102%
activity at 5 µM [3]: 94.2%
activity at 10 µM [3]: 42.5%

O=C(O)c1cn(C2CC2)c2cc(N3CCNCC3)c(F)cc2c1=O [CBK011645]
activity at 1 µM [1]: 12.8%
activity at 5 µM [1]: 1.31%
activity at 10 µM [1]: 0%
activity at 1 µM [3]: 11.1%
activity at 5 µM [3]: 0.824%
activity at 10 µM [3]: 0.167%

c1c(C2CC2)[nH]c2nc(N3CCCC3)nc(N3CCCC3)c12 [CBK016707G]
activity at 1 µM [1]: 3.94%
activity at 5 µM [1]: 11.1%
activity at 10 µM [1]: 20.9%
viability at 28.5 h, 1 µM (in vitro [2]): 99.1%
viability at 28.5 h, 5 µM (in vitro [2]): 96.9%
viability at 28.5 h, 10 µM (in vitro [2]): 86.9%
activity at 1 µM [3]: 0.765%
activity at 5 µM [3]: 0.748%
activity at 10 µM [3]: 3.52%

N=C(N)SCc1csc(-c2ccc(Br)cc2)n1 [CBK017064C]
activity at 1 µM [1]: 126%
activity at 5 µM [1]: 97.9%
activity at 10 µM [1]: 33.1%
viability at 28.5 h, 1 µM (in vitro [2]): 90.5%
viability at 28.5 h, 5 µM (in vitro [2]): 88.9%
viability at 28.5 h, 10 µM (in vitro [2]): 91.1%
activity at 1 µM [3]: 80.7%
activity at 5 µM [3]: 91.3%
activity at 10 µM [3]: 25.6%

CC(=O)NC[C@H]1CN(c2ccc(C3=CC[S+]([O-])CC3)c(F)c2)C(=O)O1 (stereo partly drawn) [CBK017555]
activity at 1 µM [1]: 134%
activity at 5 µM [1]: 11.9%
activity at 10 µM [1]: 18.3%
viability at 28.5 h, 1 µM (in vitro [2]): 88%
viability at 28.5 h, 5 µM (in vitro [2]): 95.4%
viability at 28.5 h, 10 µM (in vitro [2]): 86.3%
activity at 1 µM [3]: 85.7%
activity at 5 µM [3]: 7.09%
activity at 10 µM [3]: 1.05%

CC(NC(C)(C)C)C(O)COc1ccc(Cl)c2c1C1CCC2CC1 (stereo not drawn) [CBK017752C]
activity at 1 µM [1]: 125%
activity at 5 µM [1]: 126%
activity at 10 µM [1]: 66.4%
viability at 28.5 h, 1 µM (in vitro [2]): 90.2%
viability at 28.5 h, 5 µM (in vitro [2]): 95%
viability at 28.5 h, 10 µM (in vitro [2]): 92.2%
activity at 1 µM [3]: 68%
activity at 5 µM [3]: 78.7%
activity at 10 µM [3]: 17.5%

O=C(CCN1CCCCC1)Nc1ccc2c(=O)n3c(nc2c1)/C(=C/c1ccccc1)CC3 [CBK017786]
activity at 1 µM [1]: 142%
activity at 5 µM [1]: 56.7%
activity at 10 µM [1]: 26.3%
viability at 28.5 h, 1 µM (in vitro [2]): 91.6%
viability at 28.5 h, 5 µM (in vitro [2]): 90.4%
viability at 28.5 h, 10 µM (in vitro [2]): 92.6%
activity at 1 µM [3]: 109%
activity at 5 µM [3]: 20.7%
activity at 10 µM [3]: 10.4%

Cc1ccc(OCc2ccccc2)c(C(CCN(C(C)C)C(C)C)c2ccccc2)c1 (stereo not drawn) [CBK017906]
activity at 1 µM [1]: 148%
activity at 5 µM [1]: 124%
activity at 10 µM [1]: 61.5%
viability at 28.5 h, 1 µM (in vitro [2]): 91.6%
viability at 28.5 h, 5 µM (in vitro [2]): 92.3%
viability at 28.5 h, 10 µM (in vitro [2]): 86%
activity at 1 µM [3]: 112%
activity at 5 µM [3]: 73.2%
activity at 10 µM [3]: 22%

Cc1ccc2c(c1)OC(C)(C)CC2NC(=O)C1CCN(C)CC1 (stereo not drawn) [CBK307626]
viability at 28.5 h, 10 µM (in vitro [4]): 110%

CCn1cc(C(=O)Nc2nccs2)c(=O)c2ccc(C)nc21 [CBK307628]
viability at 28.5 h, 10 µM (in vitro [4]): 78.3%

O=C(NC1CC1)c1cnc2ccc(F)cc2c1O [CBK307629]
viability at 28.5 h, 10 µM (in vitro [4]): 82.4%

Cc1cc(C)n(C2CN(C(=O)NCCCOc3cccnc3)C2)n1 [CBK307632]
viability at 28.5 h, 10 µM (in vitro [4]): 84.1%

CCn1c(=O)oc2cc(NC(=O)NCCCc3csc(N)n3)ccc21 [CBK307633]
viability at 28.5 h, 10 µM (in vitro [4]): 79.7%

Cc1cc(C)n2nc(C(=O)NCCCn3ccnc3C(C)C)nc2n1 [CBK307635]
viability at 28.5 h, 10 µM (in vitro [4]): 94%

CCOc1ccc(NC(=O)N(Cc2cnn(C)c2)CC(C)C)cc1C#N [CBK307636]
viability at 28.5 h, 10 µM (in vitro [4]): 93%

CCCn1ncc(C(=O)NC(CC)c2cn3cccnc3n2)c1C (stereo not drawn) [CBK307640]
viability at 28.5 h, 10 µM (in vitro [4]): 92.9%

COCCN(Cc1cnn(C)c1)C(=O)NCc1nc2c(C)cccc2o1 [CBK307642]
viability at 28.5 h, 10 µM (in vitro [4]): 86.8%

CN(Cc1nc(-c2ccccc2)no1)C(=O)COCC1CCCCO1 (stereo not drawn) [CBK307643]
viability at 28.5 h, 10 µM (in vitro [4]): 106%

CCOc1ccc(-c2ccnc(N3CCOC(CN)C3)n2)cc1C(=O)O (stereo not drawn) [CBK307644]
viability at 28.5 h, 10 µM (in vitro [4]): 84%

Cn1c(O)c(CCNc2cc(C3CCOC3)ncn2)cnc1=O (stereo not drawn) [CBK307648]
viability at 28.5 h, 10 µM (in vitro [4]): 90.7%

CCOc1ccc(-c2ccnc(N3CCCC(C)(O)C3)n2)cc1C(=O)O (stereo not drawn) [CBK307652]
viability at 28.5 h, 10 µM (in vitro [4]): 117%

Cc1ccc2c(c1)C(NC(=O)N(C)C1CCS(=O)(=O)CC1)CC(C)(C)O2 (stereo not drawn) [CBK307654]
viability at 28.5 h, 10 µM (in vitro [4]): 108%

CC(C)CCN(C)C(=O)c1cccc(S(=O)(=O)NCc2ccsc2)c1 [CBK307656]
viability at 28.5 h, 10 µM (in vitro [4]): 110%
